In patent publication US20250195521A1 (Revolution Medicines, Inc., priority 2020, published 2025):
Where “and” joins values, the source holds several entries; their conditions need not be identical. Equal values may be shown once. Read-outs that look alike come from different tables or passages of the source.

What was measured:
[1] = biological target: KRAS G12C (Homo sapiens (Human), UniProt P01116+P62937, G12C); test: Ras-Raf disruption/FRET/MOA assay (BRAF RBD, Cyclophilin A); assay type: biochemical; conditions: read-out: KRAS G12C FRET IC50
Chain of KRAS G12C (P01116-2 other isoform, or with tags, fused parts or gaps G12C): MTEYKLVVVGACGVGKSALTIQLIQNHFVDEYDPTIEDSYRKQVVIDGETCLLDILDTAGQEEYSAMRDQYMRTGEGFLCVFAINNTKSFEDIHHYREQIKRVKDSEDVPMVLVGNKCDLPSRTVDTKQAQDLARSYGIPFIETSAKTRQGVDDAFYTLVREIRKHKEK
Chain of KRAS G12C (P62937 whole entry): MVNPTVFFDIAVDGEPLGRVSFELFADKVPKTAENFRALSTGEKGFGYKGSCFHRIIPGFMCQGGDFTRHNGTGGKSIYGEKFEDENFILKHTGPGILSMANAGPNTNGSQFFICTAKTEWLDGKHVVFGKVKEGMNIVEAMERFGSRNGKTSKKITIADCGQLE
In short: (§1)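 Measured: compound-facilitated Cyclophilin A:Ras complex blocking RAF RBD binding. Conditions: 12.5 nM Ras-GMPPNP, 50 nM BRAF RBD, 25 μM CypA, 3 h plus 1.5 h detection. Output: IC50 from TR-FRET ratio.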

[2] = biological target: KRAS WT (Homo sapiens (Human), UniProt P01116+P62937); test: as above; assay type: biochemical; conditions: read-out: KRAS WT FRET data IC50
Chain of KRAS WT (P01116 other isoform, or with tags, fused parts or gaps): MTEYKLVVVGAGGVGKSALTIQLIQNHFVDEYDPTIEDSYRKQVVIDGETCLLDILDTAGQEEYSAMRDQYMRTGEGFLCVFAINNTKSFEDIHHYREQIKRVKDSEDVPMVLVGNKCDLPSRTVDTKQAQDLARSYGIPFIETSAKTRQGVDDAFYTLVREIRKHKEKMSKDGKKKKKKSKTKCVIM
Chain of KRAS WT (P62937 whole entry): as the sequence (P62937 whole entry) above
In short: as §1

[3] = biological target: NRAS G12C (Homo sapiens (Human), UniProt P01111+P62937, G12C); test: as above; assay type: biochemical; conditions: read-out: NRAS G12C FRET data IC50
Chain of NRAS G12C (P01111 whole entry G12C): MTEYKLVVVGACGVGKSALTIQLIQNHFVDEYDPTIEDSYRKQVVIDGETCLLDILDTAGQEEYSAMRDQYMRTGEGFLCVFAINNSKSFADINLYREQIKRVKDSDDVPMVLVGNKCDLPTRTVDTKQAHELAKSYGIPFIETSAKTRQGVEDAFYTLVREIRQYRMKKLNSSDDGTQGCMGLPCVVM
Chain of NRAS G12C (P62937 whole entry): as the sequence (P62937 whole entry) above
In short: as §1

[4] = biological target: KRAS G12D (Homo sapiens (Human), UniProt P01116+P62937, G12D); test: as above; assay type: biochemical; conditions: read-out: KRAS G12D FRET IC50
Chain of KRAS G12D (P01116 other isoform, or with tags, fused parts or gaps G12D): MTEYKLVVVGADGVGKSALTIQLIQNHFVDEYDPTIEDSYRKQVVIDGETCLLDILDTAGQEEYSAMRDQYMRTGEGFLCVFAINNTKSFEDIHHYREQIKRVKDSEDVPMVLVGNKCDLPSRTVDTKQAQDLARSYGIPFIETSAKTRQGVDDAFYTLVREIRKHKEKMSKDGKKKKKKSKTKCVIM
Chain of KRAS G12D (P62937 whole entry): as the sequence (P62937 whole entry) above
In short: as §1

[5] = biological target: KRAS G13D (Homo sapiens (Human), UniProt P01116+P62937, G13D); test: as above; assay type: biochemical; conditions: read-out: KRAS G13D FRET data IC50
Chain of KRAS G13D (P01116 other isoform, or with tags, fused parts or gaps G13D): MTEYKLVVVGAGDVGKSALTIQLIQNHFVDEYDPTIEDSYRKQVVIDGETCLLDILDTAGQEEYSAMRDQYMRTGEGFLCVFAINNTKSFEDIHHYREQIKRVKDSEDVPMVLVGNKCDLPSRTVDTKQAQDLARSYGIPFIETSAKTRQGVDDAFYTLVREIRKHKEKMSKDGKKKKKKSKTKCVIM
Chain of KRAS G13D (P62937 whole entry): as the sequence (P62937 whole entry) above
In short: as §1

[6] = biological target: KRAS G12S (Homo sapiens (Human), UniProt P01116+P62937, G12S); test: as above; assay type: biochemical; conditions: read-out: KRAS G12S FRET IC50
Chain of KRAS G12S (P01116 other isoform, or with tags, fused parts or gaps G12S): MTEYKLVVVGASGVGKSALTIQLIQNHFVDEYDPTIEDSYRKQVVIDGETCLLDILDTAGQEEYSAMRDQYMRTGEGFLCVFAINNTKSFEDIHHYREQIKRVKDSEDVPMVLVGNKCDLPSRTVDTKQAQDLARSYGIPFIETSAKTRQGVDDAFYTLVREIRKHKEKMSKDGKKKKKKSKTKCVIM
Chain of KRAS G12S (P62937 whole entry): as the sequence (P62937 whole entry) above
In short: as §1

[7] = biological target: KRAS G12V (Homo sapiens (Human), UniProt P01116+P62937, G12V); test: as above; assay type: biochemical; conditions: read-out: KRAS G12V FRET IC50
Chain of KRAS G12V (P01116 other isoform, or with tags, fused parts or gaps G12V): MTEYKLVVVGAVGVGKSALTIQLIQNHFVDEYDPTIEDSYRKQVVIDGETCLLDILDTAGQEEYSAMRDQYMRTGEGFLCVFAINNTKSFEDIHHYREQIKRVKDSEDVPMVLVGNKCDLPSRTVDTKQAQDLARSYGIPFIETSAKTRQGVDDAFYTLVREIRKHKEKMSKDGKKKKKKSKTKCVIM
Chain of KRAS G12V (P62937 whole entry): as the sequence (P62937 whole entry) above
In short: as §1

[8] = biological target: KRAS G13C (Homo sapiens (Human), UniProt P01116+P62937, G13C); test: as above; assay type: biochemical; conditions: read-out: KRAS G13C FRET IC50
Chain of KRAS G13C (P01116 other isoform, or with tags, fused parts or gaps G13C): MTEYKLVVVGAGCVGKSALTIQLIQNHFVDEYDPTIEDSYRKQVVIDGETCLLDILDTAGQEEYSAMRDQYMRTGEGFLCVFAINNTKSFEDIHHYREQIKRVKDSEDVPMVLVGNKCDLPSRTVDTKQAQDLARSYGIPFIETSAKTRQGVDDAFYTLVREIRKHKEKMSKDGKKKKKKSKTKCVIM
Chain of KRAS G13C (P62937 whole entry): as the sequence (P62937 whole entry) above
In short: as §1

[9] = biological target: K-Ras G12C(GMP-PNP) binding to BRAF RBD (Homo sapiens (Human), UniProt P01116+P62937, G12C); test: Disruption of BRAF RBD interaction with K-Ras (FRET / MOA assay), K-Ras G12C; assay type: biochemical
Chain of K-Ras G12C(GMP-PNP) binding to BRAF RBD (P01116 other isoform, or with tags, fused parts or gaps G12C): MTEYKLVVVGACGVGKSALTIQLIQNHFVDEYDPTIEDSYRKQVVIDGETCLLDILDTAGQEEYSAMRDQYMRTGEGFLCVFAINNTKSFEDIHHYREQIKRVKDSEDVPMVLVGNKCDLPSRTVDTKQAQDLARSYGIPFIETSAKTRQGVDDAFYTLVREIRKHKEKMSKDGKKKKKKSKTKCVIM
Chain of K-Ras G12C(GMP-PNP) binding to BRAF RBD (P62937 whole entry, canonical isoform): as the sequence (P62937 whole entry) above
In short: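 Incubation of compound (up to 30 μM final, 3-fold steps) with GMP-PNP-type loaded Ras isoform, cyclophilin A and BRAF RBD ran 3 h at 25° C, followed by 1.5 h with detection antibodies. Disruption appears as a reduced TR-FRET ratio compared with DMSO controls, expressed as IC50.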

[10] = system: NCI-H358 cells (K-Ras G12C); test: CellTiter-Glo cell viability, NCI-H358; assay type: cell-based, human; conditions: K-Ras G12C, 5-day treatment, read-out: H358 Cell Viability IC50
In short: (§2)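 Viability is read as luminescence after five days of compound exposure, with plates first equilibrated to room temperature for roughly 30 minutes. Each signal is expressed as a percentage of the mean DMSO control, and curves are fitted by four-parameter logistic regression.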

[11] = system: NCI-H358 (K-Ras G12C); test: CellTiter-Glo cell viability assay, NCI-H358; assay type: cell-based, human; conditions: 5-day treatment, read-out: H358 Cell Viability assay data (K-Ras G12C, IC50)
In short: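 Viability is measured as ATP-dependent luminescence (CellTiter-Glo) five days into compound treatment. Responses are normalized to vehicle (DMSO) wells and fitted by four-parameter logistic regression.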

[12] = system: Capan-1 cells (K-Ras G12V); test: CellTiter-Glo cell viability, Capan-1; assay type: cell-based, human; conditions: K-Ras G12V, 5-day treatment, read-out: Capan-1 Cell Viability IC50
In short: as §2

[13] = system: K-Ras G12C (NCI-H358 cells); test: Potency assay: pERK in NCI-H358 cells; assay type: cell-based, human; conditions: NCI-H358 cells, 4 hours; read-out: pERK EC50 (H358 KRAS G12C)
In short: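 Cells plated the day before were exposed for 4 h at 37° C, 5% CO2 to a 10-point, 3-fold DMSO dilution series (10 mM top stock), in duplicate. Phospho-ERK was read by AlphaLISA SureFire Ultra or by In-Cell Western with DRAQ5 DNA stain, and IC50 came from a 4-parameter sigmoidal fit.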

SMILES | IC50 [1] | IC50 [2] | IC50 [3] | IC50 [4] | IC50 [5] | IC50 [6] | IC50 [7] | IC50 [8] | IC50 ([9]; read-out: KRAS G12C FRET IC50) | IC50 ([10]; Homo sapiens, NCI-H358, 120 h) | IC50 ([11]; Homo sapiens, NCI-H358, 120 h) | IC50 ([12]; Homo sapiens, CAPAN-1, 120 h) | IC50 ([9]; KRAS G12C FRET IC50) | EC50 [13] | IC50 [10] | IC50 [11] | IC50 [12]
CCn1c(-c2cccnc2[C@H](C)OC)c2c3cc(ccc31)-c1cc(O)cc(c1)C[C@H](NC(=O)[C@H](C(C)C)N(C)C(=O)[C@H]1C[C@@H]1F)C(=O)N1CCC[C@H](N1)C(=O)OCC(C)(C)C2 [Compound A161] | 100 to 1000 nM | 100 to 1000 nM | 100 to 1000 nM | 100 to 1000 nM | 100 to 1000 nM | 100 to 1000 nM | 100 to 1000 nM | 100 to 1000 nM | 100 to 1000 nM | 100 to 1000 nM | > 10000 nM | 100 to 1000 nM |  |  |  |  | 
CCn1c(-c2cccnc2[C@H](C)OC)c2c3cc(ccc31)-c1cc(O)cc(c1)C[C@H](NC(=O)[C@H](C(C)C)N(C)C(=O)[C@@H]1[C@@H]3CNC[C@@H]31)C(=O)N1CCC[C@H](N1)C(=O)OCC(C)(C)C2 [Compound A164] | 10 to 100 nM | 10 to 100 nM | 10 to 100 nM | 10 to 100 nM | 10 to 100 nM | 10 to 100 nM | 10 to 100 nM | 10 to 100 nM | 10 to 100 nM | 10 to 100 nM | 100 to 1000 nM | 100 to 1000 nM |  |  |  |  | 
CCn1c(-c2cccnc2[C@H](C)OC)c2c3cc(ccc31)-c1csc(n1)C[C@H](NC(=O)[C@H](C(C)C)N1CCC3(CCN(S(C)(=O)=O)C3)C1=O)C(=O)N1CCC[C@H](N1)C(=O)OCC(C)(C)C2 (some centres unmarked) [Compound A220] | 1000 to 10000 nM | 1000 to 10000 nM | 1000 to 10000 nM | > 10000 nM | > 10000 nM | 1000 to 10000 nM | 1000 to 10000 nM | 1000 to 10000 nM |  |  | > 10000 nM |  | 100 to 1000 nM and 1000 to 10000 nM |  |  |  | 
CCn1c(-c2cccnc2[C@H](C)OC)c2c3cc(ccc31)-c1csc(n1)C[C@H](NC(=O)[C@H]1[C@H](C)[C@@H]1C)C(=O)N1CCC[C@H](N1)C(=O)OCC(C)(C)C2 [Compound A227, (1R,2R,3S)—N-((6^3S,4S,Z)-1^1-ethyl-1^2-(2-((S)-1-methoxyethyl)pyridin-3-yl)-10,10-dimethyl-5,7-dioxo-6^1,6^2,6^3,6^4,6^5,6^6-hexahydro-1^1H-8-oxa-2 (4,2)-thiazola-1 (5,3)-indola-6 (1,3)-pyridazinacycloundecaphane-4-yl)-2,3-dimethylcyclopropane-1-carboxamide] |  |  |  |  |  |  |  | 10 to 100 nM | 100 to 1000 nM |  |  |  |  | < 5000 nM | 1000 to 10000 nM | 100 to 1000 nM | > 10000 nM

More lines, main results first:

IC50 [1] | IC50 [2] | IC50 [3] | IC50 [4] | IC50 [5] | IC50 [6] | IC50 [7] | IC50 [8] | IC50 ([9]; read-out: KRAS G12C FRET IC50) | IC50 ([10]; Homo sapiens, NCI-H358, 120 h) | IC50 ([11]; Homo sapiens, NCI-H358, 120 h) | SMILES | IC50 ([12]; Homo sapiens, CAPAN-1, 120 h) | IC50 ([9]; KRAS G12C FRET IC50) | EC50 [13] | IC50 [10] | IC50 [11] | IC50 [12]
10 to 100 nM | 10 to 100 nM | 100 to 1000 nM | 100 to 1000 nM | 10 to 100 nM | 100 to 1000 nM | 1000 to 10000 nM | 10 to 100 nM | 100 to 1000 nM and 1000 to 10000 nM | 1000 to 10000 nM |  | CCn1c(-c2cnccc2COC)c2c3cc(ccc31)-c1cc(O)cc(c1)C[C@H](NC(=O)[C@H](C(C)C)N(C)C(=O)[C@H]1CNC[C@H]1C(F)(F)F)C(=O)N1CCC[C@H](N1)C(=O)OCC(C)(C)C2 [Compound A216] | 1000 to 10000 nM |  |  |  |  | 
10 to 100 nM | 10 to 100 nM | 10 to 100 nM | 10 to 100 nM | 10 to 100 nM | 10 to 100 nM | 10 to 100 nM | 10 to 100 nM | 100 to 1000 nM and > 10000 nM |  | > 10000 nM | CCn1c(-c2cccnc2[C@H](C)OC)c2c3cc(ccc31)-c1cc(O)cc(c1)C[C@H](NC(=O)[C@H](C(C)C)N(C)C(=O)[C@@H]1C[C@@H]1C)C(=O)N1CCC[C@H](N1)C(=O)OCC(C)(C)C2 [Compound A223] | 100 to 1000 nM |  |  |  |  | 
